# Data: a melting point compilation (Tetko et al.; mined from patent text by program, amines drawn as free bases though some values may be those of a salt)
row,SMILES,melting point [°C]
1,Nc1cc(Br)nn1-c1c(Cl)cc(C(F)(F)F)cc1Cl,132 to 134
2,Cc1cc2c(c(C(C)(C)C)c1)OC(=O)C2O (centres undefined),152 to 160
3,CN(C)CCCCCCCCCCC(=N)NC(=S)Nc1ccc(Cl)cc1,130 to 132
4,CCOC(=O)C(=C(NC)NCc1ccc(Cl)nc1)[N+](=O)[O-],231 to 233
5,COc1ccc(C(=O)N[C@@H](Cc2c[nH]c3ccccc23)C(=O)O)cc1,63 to 65
6,O=c1oc2cc(O)c(O)cc2c(O)c1C1c2ccccc2Oc2c1c(=O)oc1cc(O)cc(O)c21 (centres undefined),> 300
7,Cc1onc(C(=O)c2c(F)cccc2F)c1NC(=O)CBr,76 to 80
8,CCOC(=O)C=CCn1c(C(=O)c2cc(C)cc(C)c2)c(CC)c(=O)[nH]c1=O,157 to 158
9,Cc1noc(NS(=O)(=O)c2ccc(Cc3ccccc3)s2)c1Br,49 to 50
10,COc1ccc(-c2cc(N(Cc3ccc(OCc4ccccc4)cc3)n3cnnc3)ccc2C#N)cc1,219 to 221
11,CC1(C)OC(=C(C#N)C#N)C(C#N)=C1c1ccc(N=[N+]=[N-])cc1,184
12,CCn1cc(C(=O)O)c(=O)c2cc(F)c(N3CCNC(c4sc5ccc(Cl)cc5c4C)C3)cc21 (centres undefined),300 to 305
13,Cc1ccnc(-c2cccc([N+](=O)[O-])c2)c1,80 to 82
14,CC(C)(C)c1cc(N)n(-c2c(Cl)cc(C(F)(F)F)cc2Cl)n1,110 to 120
15,CC1(C)C(=O)N(c2ccc(C#N)c(C(F)(F)F)c2)C(=O)N1CCCCCN1C(=O)N(c2ccc(C#N)c(C(F)(F)F)c2)C(=O)C1(C)C,167 to 169
16,CCN1C(=O)C(=O)N(c2cc(F)ccc2C)C1=S,152 to 153
17,NC(=O)CC1CN=C(c2cc3cccc(NS(=O)(=O)c4cccs4)c3[nH]2)S1 (centres undefined),130 to 131
18,O=C1CCC(=O)N1Nc1c(Cl)cc(Cl)cc1Cl,114 to 115
19,CC(Cc1ccc(Oc2cc(N3CCN(Cc4ccccc4)CC3)nc(Oc3ccccc3)n2)cc1)(Oc1ccccc1)C(=O)O (centres undefined),126 to 128
20,c1ccc(Nc2c(-c3ccccc3)sc3ccccc23)cc1,142 to 143
21,OCc1cc2ccccc2nc1I,189 to 190
22,CCC(CC)Oc1nc(C)nc(Oc2c(C)cc(C)cc2C)c1C,93.5 to 95.5
23,NC(=NO)c1nn([C@@H]2O[C@H](CO)[C@@H](O)[C@H]2O)c2ncnc(N)c12,242 to 244
24,O=c1c2c(OCC3CO3)cc(OCC3CO3)cc2oc2ccc3ccccc3c12 (centres undefined),198 to 200

row,SMILES,melting point [°C]
1,O=C1NCc2c1cc1ccc3c(c1c2-c1ccc(Br)cc1)OCO3,273 to 274
2,Clc1c2ccccc2nc2cc(-c3ccccc3)ccc12,104 to 108
3,O=C(NC1N=C(c2ccccc2F)c2ccccc2N(CC(=O)N2CC3CCC(CC3)C2)C1=O)c1cccc(O)c1 (racemic),> 250
4,COc1ccc(C2CCCCC2)cc1-c1csc(NC(=O)N2CCN(C[C@@H]3CCCN(C4CC4)C3)CC2)n1,88
5,O=c1c2c(Cl)cccc2nc2sc(Br)cn12,174 to 178
6,NC(=O)c1cc(F)cc(-c2cccc3cc(Cc4cccc(C(F)(F)F)c4)sc23)c1,165 to 166
7,C#CC(C)Nc1c(C)cccc1C (centres undefined),32 to 33
8,CSC1NC(=O)N(C2CCCCC2)C(=O)N1C (centres undefined),135 to 137
9,O=C(Cl)N1Cc2ccccc2Oc2ccc(Cl)cc21,100 to 102
10,COc1cccc2oc(-c3ccc(C)cc3)cc(=O)c12,169 to 171
11,CC(=O)N1C(C(=O)O)CSC1c1ccccc1OCCO[N+](=O)[O-] (centres undefined),159 to 162
12,Cc1c(-c2cnccn2)c(N2CC[C@H](N(C)C)C2)c2oc(C3CC3)nc2c1C#N,157 to 159
13,C=CCNC(=O)C1CCc2ccccc2O1 (centres undefined),76 to 77
14,O=C1C(Cc2ccccc2)C(c2ccccc2)Nc2ccccc2N1Cc1ccccc1 (centres undefined),149 to 150
15,CC12CCC3C(CCC4CC(F)CCC43C)C1CCC2=O (centres undefined),126 to 127
16,O=C1CCC(N2C(=O)c3cccc(NC(=O)COCc4ccccc4)c3C2=O)C(=O)N1 (centres undefined),204 to 206
17,CC(=O)Nc1nc(CCc2ccc(N)cc2)c(C(=O)NCc2ccc(C(F)(F)F)cc2)s1,199 to 201
18,COc1cccc(C(=O)P2(=O)Oc3ccccc3-c3ccccc32)c1 (centres undefined),116 to 118
19,Cc1cc(Oc2c(Cl)cc(C(F)(F)F)cc2Cl)nn1C(=O)NC(C)C,103 to 105
20,C=C(C(=O)c1ccc(C(=O)OC)cc1)c1cc(OC)c(OC)c(-c2cccs2)c1,102 to 103
21,O=C(O)c1ccc(C=Cc2cc(=O)c3cc(Br)ccc3o2)cc1,359 to 362
22,CCOCc1nc2c(N)nc(C)c(C)c2n1CC(C)(C)O,190 to 193
23,Cc1nn(C)c(SCc2ccccc2)c1[N+](=O)[O-],82 to 83
24,Oc1c(Cl)c(Cl)c(-c2c(Cl)c(Cl)c(O)c(Cl)c2Cl)c(Cl)c1Cl,94 to 96

row,SMILES,melting point [°C]
1,CC(C)Cc1nc2ccc(C(N)=O)cc2c(-c2ccccc2)c1CN,128 to 129
2,CN(C)CCCC1(c2ccc(OC3CCCCO3)cc2)Sc2ccccc2N(C)C1=O (centres undefined),98.5 to 101
3,CCCCOC(=O)NC1CCN(c2c(F)cc3c(=O)c(C(=O)O)cn(C4CC4)c3c2F)C1 (centres undefined),228 to 230
4,O=C(/C=C/c1ccc(S(=O)(=O)N2CCN(c3ccccc3F)CC2)cc1)NO,196 to 197
5,O=C(O)c1ccc(OC(=O)c2cccc(C(=O)Oc3ccc(C(=O)O)cc3)c2)cc1,290 to 300
6,O=C(OC1CCCCC1)C(c1ccccc1)n1cnc2[nH]ncc2c1=O (centres undefined),176 to 180
7,CNC(=O)N(C)c1nc(CC(=O)Nc2nnc(C(C)(C)C)s2)cs1,175 to 177
8,CC(=O)N1CCC(n2cnc3ccc(-c4nnc(C)o4)cc32)CC1,228 to 229
9,Cc1cc(CCCOc2c(C)cc(-c3noc(C(Cl)(Cl)Cl)n3)cc2C)on1,77 to 77.5
10,CC(C)(C)OC(=O)CN1CC(c2ccc(F)cc2)CCC(N=[N+]=[N-])C1=O (centres undefined),136 to 137
11,CCCCCCCCCC(=O)c1ccc(OCc2ccc(C=C3SC(=S)NC3=O)cc2)c(CCC)c1O,188
12,O=C1OCc2c1oc1cccc(F)c1c2=O,224 to 226
13,Cc1ccc(-c2c(-c3ccc(S(C)(=O)=O)cc3)[nH]c3ccccc23)cc1C,206 to 207
14,CSc1nc(SC)c2ccccc2n1,85
15,OCc1cnn(C(c2ccccc2)(c2ccccc2)c2ccccc2)c1,181 to 184
16,Cc1[nH]c2ccc(F)cc2c1CCC(=O)N1CCN(c2ccccc2)CC1,170 to 172
17,CCOP(=O)(CCN1CCC(N(CCN)S(=O)(=O)c2ccc(Nc3nccc(Nc4ccc(F)c(F)c4)n3)cc2)CC1)OCC,88 to 90
18,CS(=O)(=O)N(c1ccccc1)C1CCN(Cc2ccccc2)CC1,125
19,CCOc1c(Nc2cccc(C3C(C(=O)OC)=C(C)NC(C)=C3C(=O)OC)c2)c(=O)c1=O,249 to 252
20,CCOC(=O)N1CCN(c2c(F)cc([N+](=O)[O-])c(F)c2COC)CC1,85 to 86
21,CCCCCc1c(/C=C/C(=O)Oc2ccc([N+](=O)[O-])cc2)sc2cc(OC)ccc12,111 to 113
22,CS(=O)c1ccc(-c2nc(-c3ccc(F)cc3)c(-c3ccncc3)[nH]2)cc1 (centres undefined),250 to 252
23,O=c1ccccn1[C@@H]1C[C@H](O)[C@@H](O)[C@H]1O (racemic),138 to 140
24,O=C(NCCO)c1cc(-c2cccc3nn(Cc4cccc(C(F)(F)F)c4)cc23)ccn1,131 to 132

row,SMILES,melting point [°C]
1,CC(C)(C)OC(=O)N1CCC(COc2ccc(N)cc2)CC1,100 to 101
2,O=C(OCc1ccccc1)N1CCc2c([nH]c3ccccc23)C1c1ccc2c(c1)OCO2 (centres undefined),98 to 101
3,CSC(=C[N+](=O)[O-])NCCSCc1csc(NC(=N)N)n1,151 to 156
4,O=c1[nH]c2ncc(-c3ccc(-c4nnc[nH]4)cc3)nc2n1CC1CCOCC1,342 to 345
5,CS(=O)(=O)c1ccc(C2=C(c3ccc(F)cc3)CC(CF)(CF)C2)cc1,134 to 135
6,CN(C)C(=O)CSc1nc2ccccc2cc1-c1ccccc1,86 to 89
7,C[C@]1(COc2ccc3nc(N4CCC(Cc5ccc(OC(F)(F)F)cc5)CC4)ccc3c2)Cn2cc([N+](=O)[O-])nc2O1,185 to 186
8,O=C1NC(=S)SC1=Cc1ccc(COc2ccccc2CCc2ccccc2)cc1,162 to 163
9,CC(C)[Si](C#Cc1c2ccccc2c2ccc3c(C#C[Si](C(C)C)(C(C)C)C(C)C)c4ccccc4c4ccc1c2c34)(C(C)C)C(C)C,318 to 321
10,CNC(=NC#N)NCc1cccc(-c2csc(N=C(N)N)n2)n1,245 to 246
11,CCCCn1c(=O)c2c(ncn2S(=O)(=O)c2ccc(C(C)(C)C)cc2)n(CCCC)c1=O,105 to 107
12,Oc1ccc(CN[C@H]2CC[C@@H](C(c3ccccc3)c3ccccc3)OC2)cc1 (relative stereo),136 to 138
13,N#Cc1c(NCCCN2CCCC2)ncc2c1-c1ccccc1C(c1ccc(Cl)c(Cl)c1)C2 (centres undefined),104 to 110
14,O=S(=O)(CCl)N(Cc1cccnc1)C1CCCCC1,67 to 72
15,COCCOc1ccccc1S(=O)(=O)NC(=O)Nc1nc(C)cc(OC)n1,160 to 162
16,CN1C(=O)C(C#N)(c2ccc(OCC(O)CNC(C)(C)C)cc2)Sc2ccccc21 (centres undefined),160
17,CCOCCC(=O)OC1(C(=O)CO)CCC2C3CCC4=CC(=O)CCC4(C)C3C(O)CC21C (centres undefined),149
18,Cc1ccc(S(=O)(=O)NC(=O)OCCc2ccc(-n3c(CCCc4ccncc4)nc4cc(C(F)(F)F)c(Cl)cc43)cc2)cc1,80 to 87
19,CON=C(C)CC(C)(C)Cn1c(C)nc2c(N)nc3ccccc3c21,193 to 195
20,CC(C)Cc1ccc(C(C)C(=O)Oc2ccc([N+](=O)[O-])cc2)cc1 (centres undefined),156 to 162
21,CC(c1ccc(F)cc1)N1CCN(c2cc(Oc3cccc4c(=O)[nH]ccc34)ncn2)CC1 (centres undefined),249
22,Cc1cc(O)c(S(=O)(=O)Cc2ccc(Cl)c(Cl)c2)c(=O)o1,144 to 145
